Results published in patent US5935932A, “Bradykinin antagonists containing pentafluorophenylalanine” (University Technology Corporation, priority 1998, dated 1999).
Like-named read-outs stand apart in the source and are kept apart here. Where a SMILES comes first, the peptide text is derived from it. Where no end group is shown, it is not given here. [ ]: non-standard residue; d: D form. dPhe(F5) = N[C@H](Cc1c(F)c(F)c(F)c(F)c1F)C(=O)O; Igl = N[C@H](C(=O)O)C1Cc2ccccc2C1; Hyp = O=C(O)[C@@H]1C[C@@H](O)CN1; 2Thi = N[C@@H](Cc1cccs1)C(=O)O

Tests used:
[1] = molecular target: T1, bradykinin receptors in Guinea Pig Ileum (Cavia porcellus, UniProt O70526); experiment: Guinea Pig Ileum functional assay; type: cell-based
T1 construct: describes the Guinea Pig Ileum assay used to analyze the present compounds; from tissue; host or cells: isolated guinea pig ileum
T1 sequence (O70526 1-372): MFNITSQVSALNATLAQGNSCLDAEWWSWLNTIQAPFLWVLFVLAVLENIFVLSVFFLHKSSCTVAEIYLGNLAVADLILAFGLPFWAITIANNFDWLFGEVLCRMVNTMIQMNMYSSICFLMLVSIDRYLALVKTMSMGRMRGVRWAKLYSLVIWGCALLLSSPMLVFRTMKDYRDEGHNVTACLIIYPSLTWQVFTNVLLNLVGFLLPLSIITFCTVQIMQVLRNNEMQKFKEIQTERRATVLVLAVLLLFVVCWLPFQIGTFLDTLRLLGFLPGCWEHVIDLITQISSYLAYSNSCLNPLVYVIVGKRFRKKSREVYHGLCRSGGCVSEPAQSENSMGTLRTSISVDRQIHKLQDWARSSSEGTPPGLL
Excerpt: 5. Guinea Pig Ileum functional assay
Trautshold, Handbook of Expt. Pharmacol. Vol 25, Springer Verlag pp 53-55 (1970) describes the Guinea Pig Ileum assay used to analyze the present compounds. The Trautshold method was used without changes to the parameters. U.S. Pat. No. 4,693,993, at Column 14, line 10 gives a general description of data analysis for this assay.
In this table, I=inhibitor, and numbers in parenthesis are pA2. Agonist activity are given as percent BK activity.

[2] = molecular target: T2, bradykinin receptors in Rat Uterus (Rattus norvegicus, UniProt P25023); experiment: Rat Uterus functional assay; type: cell-based
T2 construct: describes the Rat Uterus assay used to analyze the present compounds; from tissue; host or cells: isolated rat uterus
T2 sequence (P25023 1-396): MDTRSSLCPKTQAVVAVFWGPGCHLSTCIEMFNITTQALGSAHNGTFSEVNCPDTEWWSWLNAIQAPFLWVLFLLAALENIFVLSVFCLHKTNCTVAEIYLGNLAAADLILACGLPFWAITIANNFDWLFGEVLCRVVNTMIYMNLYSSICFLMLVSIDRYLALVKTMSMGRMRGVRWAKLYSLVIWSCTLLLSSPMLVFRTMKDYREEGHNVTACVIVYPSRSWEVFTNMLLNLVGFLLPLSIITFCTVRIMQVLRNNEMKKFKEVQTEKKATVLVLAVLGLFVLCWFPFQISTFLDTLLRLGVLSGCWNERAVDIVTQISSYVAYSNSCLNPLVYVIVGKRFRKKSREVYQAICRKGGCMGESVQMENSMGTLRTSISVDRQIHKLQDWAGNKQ
Excerpt: 4. Rat Uterus functional assay Trautshold, Handbook of Expt. Pharmacol. […] The Trautshold method was used without changes to the parameters. U.S. Pat. No. 4,693,993, at Column 14, line 10 gives a general description of data analysis for this assay. In this table, I=inhibitor, and numbers in parenthesis are pA2. Agonist activity are given as percent BK activity.

hypotensive action of BK = settings: rats, cited from earlier work
BK action = settings: rabbits; subcutaneous injection; cited from earlier work
[3] = cited from earlier work
[4] = number in parenthesis is pA2, read-out: Ileum, pA2 (I=inhibitor) (converted)

Compound	Kb [1, 4]	Kb [2]	also measured
N=C(N)NCCC[C@@H](N)C(=O)N[C@@H](CCCNC(=N)N)C(=O)N1CCC[C@H]1C(=O)N1C[C@H](O)C[C@H]1C(=O)NCC(=O)N[C@@H](Cc1cccs1)C(=O)N[C@@H](CO)C(=O)N1Cc2ccccc2C[C@@H]1C(=O)N[C@@H](Cc1c(F)c(F)c(F)c(F)c1F)C(=O)N[C@@H](CCCNC(=N)N)C(=O)O [Compound B10168, DArg-Arg-Pro-Hyp-Gly-Thi-Ser-DTic-f5f-Arg]	3160 nM		Uterus, agonist activity as percent BK activity [2]: 4%
CC(C)C[C@H](NC(=O)[C@@H](Cc1c(F)c(F)c(F)c(F)c1F)NC(=O)[C@H](CO)NC(=O)[C@H](Cc1cccs1)NC(=O)CNC(=O)[C@@H]1C[C@@H](O)CN1C(=O)[C@@H]1CCCN1C(=O)[C@H](CCCNC(=N)N)NC(=O)[C@H](N)CCCNC(=N)N)C(=O)N[C@@H](CCCNC(=N)N)C(=O)O [Compound B10172, DArg-Arg-Pro-Hyp-Gly-Thi-Ser-Df5f-Leu-Arg] (H-[dR]RP[Hyp]G[2Thi]S[dPhe(F5)]LR-OH; N-terminus and C-terminus assumed)	50.1 nM	5.01 nM	
CC(C)C[C@H](NC(=O)[C@@H](Cc1c(F)c(F)c(F)c(F)c1F)NC(=O)[C@H](CO)NC(=O)[C@@H](NC(=O)CNC(=O)[C@@H]1C[C@@H](O)CN1C(=O)[C@@H]1CCCN1C(=O)[C@H](CCCNC(=N)N)NC(=O)[C@H](N)CCCNC(=N)N)C1Cc2ccccc2C1)C(=O)N[C@@H](CCCNC(=N)N)C(=O)O [Compound B10174, DArg-Arg-Pro-Hyp-Gly-Igl-Ser-Df5f-Leu-Arg] (H-[dR]RP[Hyp]G[Igl]S[dPhe(F5)]LR-OH; N-terminus and C-terminus assumed)	6.31 nM	7.94 nM	
N=C(N)NCCC[C@@H](N)C(=O)N[C@@H](CCCNC(=N)N)C(=O)N1CCC[C@H]1C(=O)N1C[C@H](O)C[C@H]1C(=O)NCC(=O)N[C@H](C(=O)N[C@@H](CO)C(=O)N[C@@H](C(=O)N[C@@H](Cc1c(F)c(F)c(F)c(F)c1F)C(=O)N[C@@H](CCCNC(=N)N)C(=O)O)C1Cc2ccccc2C1)C1Cc2ccccc2C1 [Compound B10178, DArg-Arg-Pro-Hyp-Gly-Igl-Ser-DIgl-f5f-Arg]	398 nM	31600 nM	
N=C(N)NCCC[C@@H](N)C(=O)N[C@@H](CCCNC(=N)N)C(=O)N1CCC[C@H]1C(=O)N1C[C@H](O)C[C@H]1C(=O)NCC(=O)N[C@H](C(=O)N[C@@H](CO)C(=O)N[C@H](Cc1c(F)c(F)c(F)c(F)c1F)C(=O)N[C@H](C(=O)N[C@@H](CCCNC(=N)N)C(=O)O)C1CCCCC1)C1Cc2ccccc2C1 [Compound B10180, DArg-Arg-Pro-Hyp-Gly-Igl-Ser-Df5f-Chg-Arg]	7.94 nM	6.31 nM	
N=C(N)NCCC[C@@H](N)C(=O)N[C@@H](CCCNC(=N)N)C(=O)N1CCC[C@H]1C(=O)N1C[C@H](O)C[C@H]1C(=O)NCC(=O)N[C@@H](Cc1cccs1)C(=O)N[C@@H](CO)C(=O)N[C@H](Cc1c(F)c(F)c(F)c(F)c1F)C(=O)N(CC(=O)N[C@@H](CCCNC(=N)N)C(=O)O)C1CCCCCC1 [Compound B10204, DArg-Arg-Pro-Hyp-Gly-Thi-Ser-Df5f-Nc7G-Arg]	12.6 nM	631 nM	
N=C(N)NCCC[C@@H](N)C(=O)N[C@@H](CCCNC(=N)N)C(=O)N1CCC[C@H]1C(=O)N1C[C@H](O)C[C@H]1C(=O)NCC(=O)N[C@H](C(=O)N[C@@H](CO)C(=O)N[C@H](Cc1c(F)c(F)c(F)c(F)c1F)C(=O)N(CC(=O)N[C@@H](CCCNC(=N)N)C(=O)O)C1CCCCCC1)C1Cc2ccccc2C1 [Compound B10206, DArg-Arg-Pro-Hyp-Gly-Igl-Ser-Df5f-Nc7G-Arg]	15.8 nM	1.26 nM	
N=C(N)NCCC[C@@H](N)C(=O)N[C@@H](CCCNC(=N)N)C(=O)N1CCC[C@H]1C(=O)N1C[C@H](O)C[C@H]1C(=O)NCC(=O)N[C@@H](Cc1cccs1)C(=O)N[C@@H](CO)C(=O)N[C@H](Cc1c(F)c(F)c(F)c(F)c1F)C(=O)N(CC(=O)N[C@@H](CCCNC(=N)N)C(=O)O)C1CCCCC1 [Compound B10208, DArg-Arg-Pro-Hyp-Gly-Thi-Ser-Df5f-NchG-Arg]			Kb ([1]; Ileum, pA2 (I=inhibitor), number in parenthesis is pA2): 2 nM; Uterus, agonist activity as percent BK activity ([2]; rat uterus, agonist activity): 14.0%
N=C(N)NCCC[C@@H](N)C(=O)N[C@@H](CCCNC(=N)N)C(=O)N1CCC[C@H]1C(=O)N[C@H](C(=O)NCC(=O)N[C@H](C(=O)N[C@@H](CO)C(=O)N[C@H](Cc1c(F)c(F)c(F)c(F)c1F)C(=O)N1[C@H](C(=O)N[C@@H](CCCNC(=N)N)C(=O)O)C[C@@H]2CCCC[C@@H]21)C1Cc2ccccc2C1)C1Cc2ccccc2C1 [Compound B10214, DArg-Arg-Pro-Igl-Gly-Igl-Ser-Df5f-Oic-Arg]	7.94 nM	6.31 nM	
N=C(N)NCCC[C@@H](N)C(=O)N[C@@H](CCCNC(=N)N)C(=O)N1CCC[C@H]1C(=O)N[C@@H](C(=O)NCC(=O)N[C@H](C(=O)N[C@@H](CO)C(=O)N[C@H](Cc1c(F)c(F)c(F)c(F)c1F)C(=O)N1[C@H](C(=O)N[C@@H](CCCNC(=N)N)C(=O)O)C[C@@H]2CCCC[C@@H]21)C1Cc2ccccc2C1)C1Cc2ccccc2C1 [Compound B10216, DArg-Arg-Pro-DIgl-Gly-Igl-Ser-Df5f-Oic-Arg]	158 nM	39.8 nM	
N=C(N)NCCC[C@H](NC(=O)[C@H](Cc1c(F)c(F)c(F)c(F)c1F)NC(=O)[C@@H](Cc1c(F)c(F)c(F)c(F)c1F)NC(=O)[C@H](CO)NC(=O)[C@@H](NC(=O)CNC(=O)[C@@H]1C[C@@H](O)CN1C(=O)[C@@H]1CCCN1C(=O)[C@H](CCCNC(=N)N)NC(=O)[C@@H](N)CCCNC(=N)N)C1Cc2ccccc2C1)C(=O)O [Compound B10230, Arg-Arg-Pro-Hyp-Gly-Igl-Ser-Df5f-f5f-Arg]	20 nM	1580 nM	
N=C(N)NCCC[C@@H](N)C(=O)N[C@@H](CCCNC(=N)N)C(=O)N1CCC[C@H]1C(=O)N1C[C@H](O)C[C@H]1C(=O)NCC(=O)N[C@H](C(=O)N[C@@H](CO)C(=O)N[C@H](Cc1c(F)c(F)c(F)c(F)c1F)C(=O)N[C@@H](Cc1c(F)c(F)c(F)c(F)c1F)C(=O)N[C@@H](CCCNC(=N)N)C(=O)O)C1Cc2ccccc2C1 [Compound B10232, DArg-Arg-Pro-Hyp-Gly-Igl-Ser-Df5f-f5f-Arg]	20 nM	7.94 nM	
N=C(N)NCCC[C@H](NC(=O)[C@H](Cc1c(F)c(F)c(F)c(F)c1F)NC(=O)[C@@H](Cc1c(F)c(F)c(F)c(F)c1F)NC(=O)[C@H](CO)NC(=O)[C@@H](NC(=O)CNC(=O)[C@@H]1C[C@@H](O)CN1C(=O)[C@@H]1CCCN1C(=O)[C@H](CCCNC(=N)N)NC(=O)[C@H](CCCNC(=N)N)NC(=O)CCC(=O)OCCOC(=O)CCC(=O)N[C@@H](CCCNC(=N)N)C(=O)N[C@@H](CCCNC(=N)N)C(=O)N1CCC[C@H]1C(=O)N1C[C@H](O)C[C@H]1C(=O)NCC(=O)N[C@H](C(=O)N[C@@H](CO)C(=O)N[C@H](Cc1c(F)c(F)c(F)c(F)c1F)C(=O)N[C@@H](Cc1c(F)c(F)c(F)c(F)c1F)C(=O)N[C@@H](CCCNC(=N)N)C(=O)O)C1Cc2ccccc2C1)C1Cc2ccccc2C1)C(=O)O [Compound B10236, EGS-(Arg-Arg-Pro-Hyp-Gly-Igl-Ser-Df5f-f5f-Arg)2]	39.8 nM		Kb ([2]; rat uterus, number in parenthesis is pA2, read-out: Uterus, pA2 (I=inhibitor) (converted)): 20 nM
DArg-Arg-Pro-Hyp-Gly-Igl-Ser-DIgl-Oic-Arg [Compound B9430]			bioavailability (hypotensive action of BK; intragastric administration): low; activity following intragastric administration (hypotensive action of BK; intragastric): active; duration of block of the hypotensive action of BK (hypotensive action of BK; single intravenous injection): more than four; duration of block of BK action (hypotensive action of BK; subcutaneous injection): 48 h; duration of block of BK action (BK action): more than 24 hrs
RPPGFSPFR [BK]			plasma half-life ([3]; caused by CPN): ≤ 15 s; cleavage by ACE on a single passage through the pulmonary circulation ([3]; single passage, pulmonary circulation): more than 99%
